Patent US9708251B2, “Unsaturated fatty alcohol alkoxylates from natural oil metathesis” (Stepan Company, priority 2012, dated 2017)
Blank lines part the entries; values can stand above or below the compound they belong to.

Legend:
[1] = Emulsion stability testing of nonionic emulsifiers, aromatic solvent series; type: physicochemical; set-up: key to 24 h separation, appearance / 1 h separation, appearance / 1 h separation, amount: C = creamy; CO = creamy oil; O = oil; GC = gritty cream; NS = no separation; OC = oily cream; key to Spon. (spontaneity): G = good; F = fair; P = poor
[2] = Emulsion stability testing of nonionic emulsifiers, Hallcomid solvent series; type: physicochemical; set-up: key to 24 h separation, appearance / 1 h separation, appearance / 1 h separation, amount: C = creamy; CO = creamy oil; O = oil; GC = gritty cream; NS = no separation; OC = oily cream; key to Spon. (spontaneity): G = good; F = fair; P = poor
[3] = Surfactant phase behavior study (cross-polarized microscopy); type: physicochemical; settings: room temperature, in deionized water
Method in brief: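 Saturated analogs serve as comparators. Water dilutions of the product, stepped at 2-4% near transitions, equilibrated between slide and cover glass and assigned phase by cross-polarized microscopy texture at 100-400×, 20-22° C. Boundaries lie within ±5% actives; some samples checked by viscosity at 25° C.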

[4] = Fabric cleaning: compaction (surfactant blends); type: physicochemical
Procedure: The sample is formulated into surfactant blends having high actives content. Two experimental derivatives, A12-13 and A12-21, are evaluated.
In a first experiment, a three-component surfactant blend is prepared. This blend comprises the experimental sample (30 wt. %), a linear alkylbenzene sulfonate (15 wt. %), and an alkyl ether sulfate (15 wt. %). The appearance and viscosity of the blend are compared with those of similar three-component blends in which a standard alcohol ethoxylate replaces the experimental sample.
In a second experiment, a two-component surfactant blend is prepared in which the experimental sample and a linear alkylbenzene sulfonate are combined at a 1:1 actives ratio, beginning with a high actives blend having a cloudy appearance. Water is gradually added and mixed with the surfactant blend at room temperature. […]

[5] = Emulsion stability testing of nonionic emulsifiers, Hallcomid solvent series; type: physicochemical; set-up: key: C = creamy; CO = creamy oil; O = oil; GC = gritty cream; NS = no separation; OC = oily cream; Tr. = trace; settings: Bifenthrin 240 g/L in Hallcomid M-8-10, 34 ppm water
Procedure: Nonionic samples contain a low amount of water (<1%) and are prepared as emulsifiable concentrates with three pesticides using two different solvent systems. In the aromatic solvent series, the nonionic sample replaces Toximul® 8240 (castor oil ethoxylate, 36 POE, Stepan), and in the Hallcomid™ (N,N-dimethylcaprylamide/N,N-dimethylcapramide, Stepan) solvent series, the nonionic sample replaces Ninex® MT-630F.
Hallcomid Solvent Series.
Sample preparation: The surfactants are combined and stirred until homogeneous, with the nonionic sample melted if needed prior to combination. Controls 1-3 are made by using Ninex MT-630F in the amounts indicated instead of the nonionic sample.
Emulsion Stability Testing
A Mohr pipette is used to feed pesticide/surfactant concentrates to each cylinder.

[6] = Performance as a latex paint additive (formulation, KU, rating); settings: initial KU of 90; additive 1% active based on latex solids
Procedure: Titanium dioxide slurry (Dupont Ti-Pure® R746) is charged to a container, followed by deionized water and propylene glycol, and the contents are mixed (500 rpm). […] The pH is adjusted to 9.0 using ammonium hydroxide solution. The batch is mixed for 30 min. and then allowed to stand for at least 2 h. […] Viscosity is adjusted to an initial KU of 90 with more thickener.

[7] = Emulsion stability testing of nonionic emulsifiers, Hallcomid solvent series; type: physicochemical; set-up: key: C = creamy; CO = creamy oil; O = oil; GC = gritty cream; NS = no separation; OC = oily cream; settings: Bifenthrin 240 g/L in Hallcomid M-8-10, 34 ppm water
[8] = 2,4-D ester 480 g/L in Exxsol D-110, 34 ppm water
[9] = 2,4-D ester 480 g/L in Exxsol D-110, 1000 ppm water
[10] = Bifenthrin 240 g/L in Aromatic 100, 34 ppm water
[11] = Bifenthrin 240 g/L in Aromatic 100, 1000 ppm water
[12] = Tebuconazole 360 g/L in N-methyl-2-pyrrolidone, 34 ppm water
[13] = Tebuconazole 360 g/L in N-methyl-2-pyrrolidone, 1000 ppm water
[14] = 2,4-D diester 480 g/L in Hallcomid M-8-10, 34 ppm water
[15] = 2,4-D diester 480 g/L in Hallcomid M-8-10, 1000 ppm water
[16] = Bifenthrin 240 g/L in Hallcomid M-8-10, 34 ppm water
[17] = Bifenthrin 240 g/L in Hallcomid M-8-10, 1000 ppm water
[18] = Tebuconazole 360 g/L in Hallcomid M-8-10, 34 ppm water
[19] = Tebuconazole 360 g/L in Hallcomid M-8-10, 1000 ppm water
[20] = three-component blend: sample 30 wt. %, linear alkylbenzene sulfonate 15 wt. %, alkyl ether sulfate 15 wt. %

Structure (SMILES): CCC=CCCCCCCCCOCCOCCOCCOCCOCCOCCOCCO (mixture of isomers) [A12-13]
1 h separation, amount [1, 8]: 3.5 mL | 1 h separation, appearance [1, 8]: C | 24 h separation, amount [1, 8]: 5 mL | 24 h separation, appearance [1, 8]: C | Spon. (spontaneity) [1, 8]: F | 1 h separation, amount [1, 9]: 5.2 mL | 1 h separation, appearance [1, 9]: CO | 24 h separation, amount [1, 9]: 5 mL | 24 h separation, appearance [1, 9]: CO | Spon. (spontaneity) [1, 9]: F | 1 h separation, amount [1, 10]: 1 mL | 1 h separation, appearance [1, 10]: C | 24 h separation, amount [1, 10]: 4.9 mL | 24 h separation, appearance [1, 10]: C | Spon. (spontaneity) [1, 10]: F | 1 h separation, amount [1, 11]: Tr. | 1 h separation, appearance [1, 11]: C | 24 h separation, amount [1, 11]: 0.5 CO, 1 C | Spon. (spontaneity) [1, 11]: G | 1 h separation, amount [1, 12]: 1.8 mL | 1 h separation, appearance [1, 12]: C | 24 h separation, amount [1, 12]: 3 GC, 4 CO | Spon. (spontaneity) [1, 12]: P | 1 h separation, amount [1, 13]: 2.4 mL | 1 h separation, appearance [1, 13]: C | 24 h separation, amount [1, 13]: 3.5 mL | 24 h separation, appearance [1, 13]: GC | Spon. (spontaneity) [1, 13]: P | 1 h separation, amount [2, 14]: 4.4 mL | 1 h separation, appearance [2, 14]: C | 24 h separation, amount [2, 14]: 9.6 mL | 24 h separation, appearance [2, 14]: C | Spon. (spontaneity) [2, 14]: P | 1 h separation, amount [2, 15]: 5.2 mL | 1 h separation, appearance [2, 15]: C | 24 h separation, amount [2, 15]: 9 mL | 24 h separation, appearance [2, 15]: C | Spon. (spontaneity) [2, 15]: F | 1 h separation, amount [2, 16]: NS | 24 h separation, appearance [2, 16]: C | Spon. (spontaneity) [2, 16]: G | 1 h separation, amount [2, 17]: 5.1 mL | 1 h separation, appearance [2, 17]: CO | 24 h separation, amount [2, 17]: 3 O, 2 CO | Spon. (spontaneity) [2, 17]: F | 1 h separation, amount [2, 18]: 1.3 mL | 1 h separation, appearance [2, 18]: C | 24 h separation, amount [2, 18]: 4.1 mL | 24 h separation, appearance [2, 18]: C | Spon. (spontaneity) [2, 18]: F | 1 h separation, amount [2, 19]: 1.8 mL | 1 h separation, appearance [2, 19]: C | 24 h separation, amount [2, 19]: 4.3 mL | 24 h separation, appearance [2, 19]: C | Spon. (spontaneity) [2, 19]: G | Hexagonal phase region [3]: 35-57 % Actives Level | Appearance, 25° C. [4, 20]: cloudy, flowable gel | Viscosity [4, 20]: 5400 cPs | % Actives at which blend is clear and homogeneous at 25° C. ([4]; two-component blend with linear alkylbenzene sulfonate, 1:1 actives ratio): 41 % Actives | 24 h separation, amount [5]: Tr.

Structure (SMILES): CCC=CCCCCCCCCOCCOCCOCCOCCOCCO (mixture of isomers) [A12-10]
1 h separation, amount [1, 8]: 0.7 mL | 1 h separation, appearance [1, 8]: C | 24 h separation, amount [1, 8]: 3.9 mL | 24 h separation, appearance [1, 8]: C | Spon. (spontaneity) [1, 8]: F | 1 h separation, amount [1, 9]: 4.6 mL | 1 h separation, appearance [1, 9]: CO | 24 h separation, amount [1, 9]: 0.75 O, 4.3 CO | Spon. (spontaneity) [1, 9]: P | 1 h separation, amount [1, 10]: 2.3 mL | 1 h separation, appearance [1, 10]: C | 24 h separation, amount [1, 10]: 9 mL | 24 h separation, appearance [1, 10]: C | Spon. (spontaneity) [1, 10]: F | Spon. (spontaneity) [1, 11]: F | 1 h separation, amount [1, 12]: 2.6 mL | 1 h separation, appearance [1, 12]: C | 24 h separation, amount [1, 12]: 4 mL | 24 h separation, appearance [1, 12]: GC | Spon. (spontaneity) [1, 12]: P | 1 h separation, amount [1, 13]: 2.1 mL | 1 h separation, appearance [1, 13]: C | 24 h separation, amount [1, 13]: 3.2 mL | 24 h separation, appearance [1, 13]: GC | Spon. (spontaneity) [1, 13]: P | 1 h separation, amount [2, 14]: 5.3 mL | 1 h separation, appearance [2, 14]: C | 24 h separation, amount [2, 14]: 9.2 mL | 24 h separation, appearance [2, 14]: C | Spon. (spontaneity) [2, 14]: P | 1 h separation, amount [2, 15]: 6.8 mL | 1 h separation, appearance [2, 15]: C | 24 h separation, amount [2, 15]: 8.7 mL | 24 h separation, appearance [2, 15]: C | Spon. (spontaneity) [2, 15]: F | 1 h separation, amount [2, 16]: NS | 24 h separation, appearance [2, 16]: C | Spon. (spontaneity) [2, 16]: G | 1 h separation, amount [2, 17]: 6.1 mL | 1 h separation, appearance [2, 17]: O | 24 h separation, amount [2, 17]: 3 O, 2 CO | Spon. (spontaneity) [2, 17]: F | 1 h separation, amount [2, 18]: 2.1 mL | 1 h separation, appearance [2, 18]: C | 24 h separation, amount [2, 18]: 5.1 mL | 24 h separation, appearance [2, 18]: C | Spon. (spontaneity) [2, 18]: F | 1 h separation, amount [2, 19]: 2 mL | 1 h separation, appearance [2, 19]: C | 24 h separation, amount [2, 19]: 4.2 mL | 24 h separation, appearance [2, 19]: C | Spon. (spontaneity) [2, 19]: F | Lamellar phase region [3]: 50-80 % Actives Level | Lamellar/Isotropic phase region [3]: 35-50 % Actives Level | 24 h separation, amount [5]: Tr.

1 h separation, amount [1, 8]: 3.9 mL | 1 h separation, appearance [1, 8]: C | 24 h separation, amount [1, 8]: 5.3 mL | 24 h separation, appearance [1, 8]: C | Spon. (spontaneity) [1, 8]: P | 1 h separation, amount [1, 9]: 2.9 mL | 1 h separation, appearance [1, 9]: C | 24 h separation, amount [1, 9]: 4 mL | 24 h separation, appearance [1, 9]: C | Spon. (spontaneity) [1, 9]: P | 1 h separation, amount [1, 10]: 5.9 mL | 1 h separation, appearance [1, 10]: C | 24 h separation, amount [1, 10]: 6 mL | 24 h separation, appearance [1, 10]: C | Spon. (spontaneity) [1, 10]: F | 1 h separation, amount [1, 11]: 5.5 mL | 1 h separation, appearance [1, 11]: C | 24 h separation, amount [1, 11]: 5 mL | 24 h separation, appearance [1, 11]: C | Spon. (spontaneity) [1, 11]: P | 1 h separation, amount [1, 12]: 1.8 mL | 1 h separation, appearance [1, 12]: CO | 24 h separation, amount [1, 12]: 3 mL | 24 h separation, appearance [1, 12]: GC | Spon. (spontaneity) [1, 12]: F | 1 h separation, amount [1, 13]: 1.9 mL | 1 h separation, appearance [1, 13]: CO | 24 h separation, amount [1, 13]: 3 mL | 24 h separation, appearance [1, 13]: GC | Spon. (spontaneity) [1, 13]: F | 1 h separation, amount [2, 14]: 4.5 mL | 1 h separation, appearance [2, 14]: C | 24 h separation, amount [2, 14]: 8.5 mL | 24 h separation, appearance [2, 14]: C | Spon. (spontaneity) [2, 14]: P | 1 h separation, amount [2, 15]: 4 mL | 1 h separation, appearance [2, 15]: C | 24 h separation, amount [2, 15]: 7 mL | 24 h separation, appearance [2, 15]: C | Spon. (spontaneity) [2, 15]: P | 1 h separation, amount [2, 16]: NS | Spon. (spontaneity) [2, 16]: G | 1 h separation, amount [2, 17]: 6.2 mL | 1 h separation, appearance [2, 17]: CO | 24 h separation, amount [2, 17]: 2 O, 3.6 CO | Spon. (spontaneity) [2, 17]: F | 1 h separation, amount [2, 18]: 1.5 mL | 1 h separation, appearance [2, 18]: C | 24 h separation, amount [2, 18]: 3 mL | 24 h separation, appearance [2, 18]: C | Spon. (spontaneity) [2, 18]: F | 1 h separation, amount [2, 19]: 1.5 mL | 1 h separation, appearance [2, 19]: C | 24 h separation, amount [2, 19]: 3 mL | 24 h separation, appearance [2, 19]: C | Spon. (spontaneity) [2, 19]: F | Cubic phase region [3]: 30-57 % Actives Level | Hexagonal phase region [3]: 60-70 % Actives Level | Paste phase region [3]: 93-100 % Actives Level | final KU of paint after 24 h [6]: 93-100 KU | 24 h separation, amount [7]: NS
Structure (SMILES): CCC=CCCCCCCCCOCCOCCOCCOCCOCCOCCOCCOCCOCCOCCOCCOCCOCCOCCOCCO (mixture of isomers) [A12-16]
